{
  "source": "patent US10080739B2",
  "about": "“Aryl imidazoles and their use as anti-cancer agents” (Aptose Biosciences Inc., priority 2003, dated 2018)",
  "key": {"[1]": {"target": "T1, MAPK1 (Homo sapiens, UniProt P27361)", "T1 construct": "purchased Upstate Biotechnologies (kinase profiler service)", "T1 sequence (P27361 whole entry)": "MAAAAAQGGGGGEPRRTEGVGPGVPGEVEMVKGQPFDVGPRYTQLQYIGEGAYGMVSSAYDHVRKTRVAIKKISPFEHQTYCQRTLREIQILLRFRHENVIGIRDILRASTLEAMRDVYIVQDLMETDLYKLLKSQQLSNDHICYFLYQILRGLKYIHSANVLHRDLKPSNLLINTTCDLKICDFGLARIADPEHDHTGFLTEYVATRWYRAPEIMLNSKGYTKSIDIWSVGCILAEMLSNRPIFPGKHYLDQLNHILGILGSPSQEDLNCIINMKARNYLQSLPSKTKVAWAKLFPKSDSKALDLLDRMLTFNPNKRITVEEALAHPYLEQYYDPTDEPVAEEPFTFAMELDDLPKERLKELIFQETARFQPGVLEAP", "assay": "kinase profiler, MAPK1", "assay_type": "biochemical", "details": "10 μM compound, 100 μM ATP, mean of % control", "method": "(§1) Compound 45 was tested for its ability to function as a kinase inhibitor using the kinase profiler service from Upstate Biotechnologies. The general protocol employed is as follows: recombinant kinases were incubated with specific substrates, 10 mM MgAcetate, and [γ-^33P-ATP]. The reaction was initiated by the addition of MgATP mix. After incubation at room temperature for 40 minutes, the reaction was stopped by the addition of 5 μl of a 3% phosphoric acid solution. 10 μl of the reaction was then spotted on to a P30 filtermat and washed 3 times for 5 min. in 75 mM phosphoric acid and once in methanol prior to drying and scintillation counting. Each reaction was performed in duplicate with 100 μM ATP −/+10 μM compound 45. Results are presented in Table IV and are expressed as the mean of % control (no compound). PI 3-kinase-γ (PI3K-γ) activity was determined with the PIProfiler™ assay, which measures the binding of the GRP1 pleckstrin homology (PH) domain to PIP3, the product of PI3K acting on its physiological substrate PIP2."}, "[2]": {"system": "CaMKII", "assay": "kinase profiler, CaMKII", "assay_type": "biochemical, human", "details": "10 μM compound, 100 μM ATP, mean of % control", "method": "as §1"}, "[3]": {"target": "T2, CaMKIV (Homo sapiens, UniProt Q16566)", "T2 construct": "purchased Upstate Biotechnologies (kinase profiler service)", "assay": "kinase profiler, CaMKIV", "assay_type": "biochemical", "details": "10 μM compound, 100 μM ATP, mean of % control", "method": "as §1"}, "[4]": {"target": "T3, Ros (Homo sapiens, UniProt P08922)", "T3 construct": "purchased Upstate Biotechnologies (kinase profiler service)", "assay": "kinase profiler, Ros", "assay_type": "biochemical", "details": "10 μM compound, 100 μM ATP, mean of % control", "method": "as §1"}, "[5]": {"system": "p70S6K", "assay": "kinase profiler, p70S6K", "assay_type": "biochemical, human", "details": "10 μM compound, 100 μM ATP, mean of % control", "method": "as §1"}, "[6]": {"target": "T4, TrkA (Homo sapiens, UniProt P04629)", "T4 construct": "purchased Upstate Biotechnologies (kinase profiler service)", "T4 sequence (P04629 33-796)": "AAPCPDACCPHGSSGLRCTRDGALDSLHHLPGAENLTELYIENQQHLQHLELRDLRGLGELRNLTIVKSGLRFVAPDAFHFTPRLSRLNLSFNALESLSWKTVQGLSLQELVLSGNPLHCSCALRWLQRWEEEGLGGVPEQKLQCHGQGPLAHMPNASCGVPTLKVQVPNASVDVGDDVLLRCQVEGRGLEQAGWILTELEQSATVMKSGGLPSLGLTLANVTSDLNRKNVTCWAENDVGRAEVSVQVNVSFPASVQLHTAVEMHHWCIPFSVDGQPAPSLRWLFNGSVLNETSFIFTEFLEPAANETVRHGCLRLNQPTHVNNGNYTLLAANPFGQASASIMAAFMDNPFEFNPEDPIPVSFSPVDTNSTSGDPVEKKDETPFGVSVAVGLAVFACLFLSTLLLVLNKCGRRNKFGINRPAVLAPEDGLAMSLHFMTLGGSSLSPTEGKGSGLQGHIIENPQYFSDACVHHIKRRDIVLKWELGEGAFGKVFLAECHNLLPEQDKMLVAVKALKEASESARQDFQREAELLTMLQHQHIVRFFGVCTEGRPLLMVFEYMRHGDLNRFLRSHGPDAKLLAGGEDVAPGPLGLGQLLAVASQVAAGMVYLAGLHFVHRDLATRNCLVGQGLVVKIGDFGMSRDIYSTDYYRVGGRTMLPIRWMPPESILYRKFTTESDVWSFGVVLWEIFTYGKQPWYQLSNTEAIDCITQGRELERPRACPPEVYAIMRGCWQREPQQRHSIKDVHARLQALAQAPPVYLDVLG", "assay": "kinase profiler, TrkA", "assay_type": "biochemical", "details": "10 μM compound, 100 μM ATP, mean of % control", "method": "as §1"}, "[7]": {"target": "T5, EphA2 (Homo sapiens, UniProt P29317)", "T5 construct": "purchased Upstate Biotechnologies (kinase profiler service)", "T5 sequence (P29317 24-976)": "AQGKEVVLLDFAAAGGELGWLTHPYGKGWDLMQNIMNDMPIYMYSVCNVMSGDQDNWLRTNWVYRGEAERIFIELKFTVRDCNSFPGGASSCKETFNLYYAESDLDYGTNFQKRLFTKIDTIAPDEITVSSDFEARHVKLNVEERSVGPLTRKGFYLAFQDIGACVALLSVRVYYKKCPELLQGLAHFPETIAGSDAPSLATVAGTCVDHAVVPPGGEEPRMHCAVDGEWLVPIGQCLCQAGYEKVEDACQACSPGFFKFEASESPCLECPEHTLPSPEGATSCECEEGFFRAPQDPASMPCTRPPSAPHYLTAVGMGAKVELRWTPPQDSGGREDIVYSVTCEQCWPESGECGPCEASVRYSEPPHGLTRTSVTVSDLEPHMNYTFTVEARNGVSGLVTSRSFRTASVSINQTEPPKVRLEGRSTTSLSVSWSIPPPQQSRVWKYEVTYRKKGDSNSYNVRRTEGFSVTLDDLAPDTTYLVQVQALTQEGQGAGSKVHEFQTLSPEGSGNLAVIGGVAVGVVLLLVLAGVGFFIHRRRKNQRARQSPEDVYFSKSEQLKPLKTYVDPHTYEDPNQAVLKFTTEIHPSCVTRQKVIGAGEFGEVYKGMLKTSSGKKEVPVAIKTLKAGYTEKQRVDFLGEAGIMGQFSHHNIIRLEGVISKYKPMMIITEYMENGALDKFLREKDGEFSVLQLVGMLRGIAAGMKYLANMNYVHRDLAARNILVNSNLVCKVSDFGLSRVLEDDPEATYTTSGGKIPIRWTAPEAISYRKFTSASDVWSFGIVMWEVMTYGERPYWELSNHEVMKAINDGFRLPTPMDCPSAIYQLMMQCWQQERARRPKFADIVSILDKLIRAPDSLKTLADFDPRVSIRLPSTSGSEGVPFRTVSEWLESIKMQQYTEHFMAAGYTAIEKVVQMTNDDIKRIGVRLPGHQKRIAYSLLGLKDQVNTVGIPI", "assay": "kinase profiler, EphA2", "assay_type": "biochemical", "details": "10 μM compound, 100 μM ATP, mean of % control", "method": "as §1"}, "[8]": {"target": "T6, MAPK2 (Homo sapiens, UniProt P28482)", "T6 construct": "purchased Upstate Biotechnologies (kinase profiler service)", "assay": "kinase profiler, MAPK2", "assay_type": "biochemical", "details": "10 μM compound, 100 μM ATP, mean of % control", "method": "as §1"}, "[9]": {"target": "T7, SRC (Homo sapiens, UniProt P12931)", "T7 construct": "purchased Upstate Biotechnologies (kinase profiler service)", "assay": "kinase profiler, SRC", "assay_type": "biochemical", "details": "10 μM compound, 100 μM ATP, mean of % control", "method": "as §1"}, "[10]": {"target": "T8, CDK2/cyclinE (Homo sapiens, UniProt P24941)", "T8 construct": "purchased Upstate Biotechnologies (kinase profiler service)", "assay": "kinase profiler, CDK2/cyclinE", "assay_type": "biochemical", "details": "10 μM compound, 100 μM ATP, mean of % control", "method": "as §1"}, "[11]": {"target": "T9, Fes (Homo sapiens, UniProt P07332)", "T9 construct": "purchased Upstate Biotechnologies (kinase profiler service)", "T9 sequence (P07332 whole entry)": "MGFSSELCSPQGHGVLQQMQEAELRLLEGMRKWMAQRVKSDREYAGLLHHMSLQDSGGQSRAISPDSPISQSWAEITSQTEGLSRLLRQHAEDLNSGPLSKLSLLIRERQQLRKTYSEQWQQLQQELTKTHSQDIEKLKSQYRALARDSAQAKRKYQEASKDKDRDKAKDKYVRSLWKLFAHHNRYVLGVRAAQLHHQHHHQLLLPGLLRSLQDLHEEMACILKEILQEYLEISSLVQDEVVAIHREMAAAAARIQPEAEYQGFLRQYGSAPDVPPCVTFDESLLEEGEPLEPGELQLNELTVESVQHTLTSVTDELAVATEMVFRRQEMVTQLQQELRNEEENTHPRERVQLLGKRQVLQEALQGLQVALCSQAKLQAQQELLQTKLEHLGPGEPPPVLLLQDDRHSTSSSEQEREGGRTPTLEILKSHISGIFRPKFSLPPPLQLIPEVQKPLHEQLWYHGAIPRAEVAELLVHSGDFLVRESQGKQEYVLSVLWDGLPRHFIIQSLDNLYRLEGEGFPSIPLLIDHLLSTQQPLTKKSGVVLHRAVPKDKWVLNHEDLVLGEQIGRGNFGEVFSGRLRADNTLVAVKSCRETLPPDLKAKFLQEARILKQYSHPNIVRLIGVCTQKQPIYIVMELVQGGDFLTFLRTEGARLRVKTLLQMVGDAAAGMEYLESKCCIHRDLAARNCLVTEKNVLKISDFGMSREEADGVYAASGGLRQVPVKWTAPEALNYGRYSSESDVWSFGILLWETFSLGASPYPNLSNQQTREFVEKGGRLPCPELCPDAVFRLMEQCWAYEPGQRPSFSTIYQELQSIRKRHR", "assay": "kinase profiler, Fes", "assay_type": "biochemical", "details": "10 μM compound, 100 μM ATP, mean of % control", "method": "as §1"}, "[12]": {"target": "T10, RAF (Homo sapiens, UniProt P04049)", "T10 construct": "purchased Upstate Biotechnologies (kinase profiler service)", "assay": "kinase profiler, RAF", "assay_type": "biochemical", "details": "10 μM compound, 100 μM ATP, mean of % control", "method": "as §1"}, "[13]": {"target": "T11, PRK2 (Homo sapiens, UniProt Q16513)", "T11 construct": "purchased Upstate Biotechnologies (kinase profiler service)", "T11 sequence (Q16513 whole entry)": "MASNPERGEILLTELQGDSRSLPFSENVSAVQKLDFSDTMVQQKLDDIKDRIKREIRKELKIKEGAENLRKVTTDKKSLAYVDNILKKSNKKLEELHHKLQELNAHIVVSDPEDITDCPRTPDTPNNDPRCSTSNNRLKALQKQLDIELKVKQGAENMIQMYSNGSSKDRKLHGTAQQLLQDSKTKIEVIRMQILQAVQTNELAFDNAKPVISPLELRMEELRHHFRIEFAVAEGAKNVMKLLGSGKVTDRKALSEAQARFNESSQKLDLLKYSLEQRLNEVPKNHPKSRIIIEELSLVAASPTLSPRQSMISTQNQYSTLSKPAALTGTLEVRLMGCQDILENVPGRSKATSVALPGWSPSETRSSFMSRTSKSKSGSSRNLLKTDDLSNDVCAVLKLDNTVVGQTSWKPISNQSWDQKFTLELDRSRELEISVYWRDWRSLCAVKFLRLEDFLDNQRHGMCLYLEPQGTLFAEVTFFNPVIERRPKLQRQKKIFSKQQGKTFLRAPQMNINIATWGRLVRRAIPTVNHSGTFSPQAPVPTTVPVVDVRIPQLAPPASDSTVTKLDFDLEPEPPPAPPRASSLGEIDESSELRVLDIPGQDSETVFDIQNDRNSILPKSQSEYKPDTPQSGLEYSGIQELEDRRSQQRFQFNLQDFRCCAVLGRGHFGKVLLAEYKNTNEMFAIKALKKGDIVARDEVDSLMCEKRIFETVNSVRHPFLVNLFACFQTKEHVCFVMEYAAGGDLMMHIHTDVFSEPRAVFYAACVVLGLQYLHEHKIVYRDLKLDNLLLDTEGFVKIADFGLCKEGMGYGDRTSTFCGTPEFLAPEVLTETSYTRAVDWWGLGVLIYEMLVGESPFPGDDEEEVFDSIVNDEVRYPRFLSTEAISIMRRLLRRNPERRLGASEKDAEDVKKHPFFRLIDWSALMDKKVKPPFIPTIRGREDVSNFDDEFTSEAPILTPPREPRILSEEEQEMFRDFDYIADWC", "assay": "kinase profiler, PRK2", "assay_type": "biochemical", "details": "10 μM compound, 100 μM ATP, mean of % control", "method": "as §1"}, "[14]": {"target": "T12, ROCK-II (Homo sapiens, UniProt O75116)", "T12 construct": "purchased Upstate Biotechnologies (kinase profiler service)", "assay": "kinase profiler, ROCK-II", "assay_type": "biochemical", "details": "10 μM compound, 100 μM ATP, mean of % control", "method": "as §1"}, "[15]": {"target": "T13, GSK3α (Homo sapiens, UniProt P49840)", "T13 construct": "purchased Upstate Biotechnologies (kinase profiler service)", "T13 sequence (P49840 whole entry)": "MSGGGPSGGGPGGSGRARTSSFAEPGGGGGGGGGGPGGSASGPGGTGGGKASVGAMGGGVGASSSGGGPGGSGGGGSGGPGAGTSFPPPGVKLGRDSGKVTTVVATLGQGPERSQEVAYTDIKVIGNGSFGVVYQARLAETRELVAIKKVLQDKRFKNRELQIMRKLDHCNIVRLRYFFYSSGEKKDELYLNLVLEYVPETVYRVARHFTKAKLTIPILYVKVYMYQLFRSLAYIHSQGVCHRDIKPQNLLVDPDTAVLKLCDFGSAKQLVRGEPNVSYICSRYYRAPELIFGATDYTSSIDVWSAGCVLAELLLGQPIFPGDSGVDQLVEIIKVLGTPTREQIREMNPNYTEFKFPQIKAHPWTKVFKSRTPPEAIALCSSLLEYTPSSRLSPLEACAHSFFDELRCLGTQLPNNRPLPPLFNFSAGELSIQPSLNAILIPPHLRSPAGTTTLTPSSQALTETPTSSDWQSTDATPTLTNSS", "assay": "kinase profiler, GSK3α", "assay_type": "biochemical", "details": "10 μM compound, 100 μM ATP, mean of % control", "method": "as §1"}, "[16]": {"target": "T14, Fms (Homo sapiens, UniProt P07333)", "T14 construct": "purchased Upstate Biotechnologies (kinase profiler service)", "assay": "kinase profiler, Fms", "assay_type": "biochemical", "details": "10 μM compound, 100 μM ATP, mean of % control", "method": "as §1"}, "[17]": {"target": "T15, Lyn (Homo sapiens, UniProt P07948)", "T15 construct": "purchased Upstate Biotechnologies (kinase profiler service)", "T15 sequence (P07948 whole entry)": "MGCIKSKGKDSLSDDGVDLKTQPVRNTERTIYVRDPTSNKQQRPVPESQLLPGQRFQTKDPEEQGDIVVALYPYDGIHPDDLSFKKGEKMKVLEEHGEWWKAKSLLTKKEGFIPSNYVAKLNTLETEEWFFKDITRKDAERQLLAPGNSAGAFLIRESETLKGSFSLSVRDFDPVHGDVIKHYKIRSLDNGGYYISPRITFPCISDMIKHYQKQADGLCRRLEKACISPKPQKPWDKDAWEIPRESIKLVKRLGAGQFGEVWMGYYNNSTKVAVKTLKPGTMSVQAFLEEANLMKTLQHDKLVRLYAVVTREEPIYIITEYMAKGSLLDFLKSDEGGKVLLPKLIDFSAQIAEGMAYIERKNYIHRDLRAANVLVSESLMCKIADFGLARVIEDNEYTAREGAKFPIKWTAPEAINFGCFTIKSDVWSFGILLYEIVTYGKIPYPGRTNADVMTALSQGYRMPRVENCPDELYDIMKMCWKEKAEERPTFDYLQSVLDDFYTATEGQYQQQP", "assay": "kinase profiler, Lyn", "assay_type": "biochemical", "details": "10 μM compound, 100 μM ATP, mean of % control", "method": "as §1"}, "[18]": {"system": "A498 renal carcinoma cells", "assay": "morphological changes (vacuoles), A498", "assay_type": "cell-based, human", "details": "treatment for 24 hours", "excerpt": "These vacuoles are not formed in DMSO- or doxorubicin-treated cells. Moreover, the nuclear membrane is no longer evident in the phase-contrast images of cells treated with compound 45, even though the nucleus is still intact, as shown by DAPI staining."}, "[19]": {"target": "T16, Aurora-A (Homo sapiens, UniProt O14965)", "T16 construct": "purchased Upstate Biotechnologies (kinase profiler service)", "assay": "kinase profiler, Aurora-A", "assay_type": "biochemical", "details": "10 μM compound, 100 μM ATP, mean of % control", "method": "as §1"}, "[20]": {"target": "T17, Rsk1 (Homo sapiens, UniProt Q15418)", "T17 construct": "purchased Upstate Biotechnologies (kinase profiler service)", "assay": "kinase profiler, Rsk1", "assay_type": "biochemical", "details": "10 μM compound, 100 μM ATP, mean of % control", "method": "as §1"}, "[21]": {"target": "T18, PAR-1Bα (Homo sapiens, UniProt Q7KZI7)", "T18 construct": "purchased Upstate Biotechnologies (kinase profiler service)", "assay": "kinase profiler, PAR-1Bα", "assay_type": "biochemical", "details": "10 μM compound, 100 μM ATP, mean of % control", "method": "as §1"}},
  "data": [
    {"smiles": "Brc1ccc2[nH]cc(-c3nc4c5ccccc5c5ccccc5c4[nH]3)c2c1", "note": "[Compound 45]", "values": [
      {"measurement": "activity at 10 µM", "setting": "[1]", "value": 85, "unit": "%"},
      {"measurement": "% activity", "setting": "[2]", "value": 32, "unit": "%"},
      {"measurement": "activity at 10 µM", "setting": "[3]", "value": 98, "unit": "%"},
      {"measurement": "activity at 10 µM", "setting": "[4]", "value": 107, "unit": "%"},
      {"measurement": "% activity", "setting": "[5]", "value": 64, "unit": "%"},
      {"measurement": "activity at 10 µM", "setting": "[6]", "value": 56, "unit": "%"},
      {"measurement": "activity at 10 µM", "setting": "[7]", "value": 95, "unit": "%"},
      {"measurement": "activity at 10 µM", "setting": "[8]", "value": 99, "unit": "%"},
      {"measurement": "activity at 10 µM", "setting": "[9]", "value": 102, "unit": "%"},
      {"measurement": "activity at 10 µM", "setting": "[10]", "value": 117, "unit": "%"},
      {"measurement": "activity at 10 µM", "setting": "[11]", "value": 99, "unit": "%"},
      {"measurement": "activity at 10 µM", "setting": "[12]", "value": 100, "unit": "%"},
      {"measurement": "activity at 10 µM", "setting": "[13]", "value": 83, "unit": "%"},
      {"measurement": "activity at 10 µM", "setting": "[14]", "value": 86, "unit": "%"},
      {"measurement": "activity at 10 µM", "setting": "[15]", "value": 96, "unit": "%"},
      {"measurement": "activity at 10 µM", "setting": "[16]", "value": 135, "unit": "%"},
      {"measurement": "activity at 10 µM", "setting": "[17]", "value": 81, "unit": "%"},
      {"measurement": "formation of vacuoles", "setting": "[18]", "value": "formation of large vacuoles within the cytoplasm"},
      {"measurement": "activity at 10 µM", "setting": "[19]", "value": 54, "unit": "%"},
      {"measurement": "activity at 10 µM", "setting": "[20]", "value": 183, "unit": "%"},
      {"measurement": "activity at 10 µM", "setting": "[21]", "value": 88, "unit": "%"}
    ]}
  ]
}
